The source of these data is ChEMBL document CHEMBL1201862, “PubChem BioAssay data set” (2004).

Calls of active or inactive are those of the source.

A short description of test [1]: DRD fibroblast viability loss – cell-based, non-viral oncogenic, luminescence, dose response (AID 1934). Particulars: Homo sapiens. It is filed as functional.
Test [2] is described as follows: Luminescence Cell-Based Dose Confirmation HTS to Identify Inhibitors of Platelet Dense Granule Release. [Related pubchem assays: 1663 (Primary HTS), 1678 (Summary of Project)]. It counts as functional.
Test [3] concerns BJ. Put plainly: BJ-TERT-LT-ST fibroblast viability loss – cell-based, RAS-independent, luminescence, dose response (AID 1935).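 Further: BJ fibroblasts immortalized with TERT plus LT and ST oncogenes.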 It counts as functional. Particulars: Homo sapiens.
Test [4] has as its system BJ. Put plainly: growth inhibition of engineered Ras-driven BJ cells – cell-based, alamar blue fluorescence, cherrypicked samples, dose response (AID 2631).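 Further: confirmatory dose-response assay in RAS-dependent BJ fibroblasts engineered with TERT, LT and ST, with cytotoxicity read by fluorescence.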 It counts as functional. The note with it: Homo sapiens.
The test system of test [5] is BJ. In words: BJ-TERT fibroblast viability loss – cell-based, RAS-independent, luminescence, dose response (AID 1933). It is filed as functional. Particulars: Homo sapiens.
Test [6] concerns BJ. In words: cells. It counts as functional, cell-based. The note with it: Homo sapiens.
The subject of test [7] is HT-1080. Put plainly: HT1080 cell viability loss – fluorescence readout (AID 620). It counts as functional, cell-based. Particulars: Homo sapiens.
Test [8] has as its target T1, Luciferin 4-monooxygenase (Photinus pyralis, UniProt P08659). In words: Counter Screen for Luciferase-based Assay Positives. [Related pubchem assays: 620, 618, 411 ]. On the technique in general: The purpose of a counterscreen is to sort out artefacts and off-target activity.
Test [9] has as its target T1, Luciferin 4-monooxygenase. Put plainly: inhibition of purified Photinus pyralis luciferase – biochemical, luminescence, dose response (AID 1891).
Test [10] has as its target Cyclin-dependent kinase 5/CDK5 activator 1 (Homo sapiens, UniProt Q00535). Put plainly: blockade of human CDK5 activity – biochemical, cherry-picked samples, set 2, dose response (AID 504545).
In test [11] the test system is Staphylococcus aureus. In words: Inhibitors of Bacterial Quorum Sensing Structure Activity Relationship (SAR) Analysis: Dose Response Assay. [Related pubchem assays: 700, 527 ]. It is filed as functional, organism-based.
Test [12] addresses Paired box protein Pax-8 (Homo sapiens, UniProt Q06710). In words: PAX8 transcriptional activity inhibition in RMG-I – RMG-I cells, luciferase, cherry-pick, dose response (AID 687027).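 Further: luciferase reporter driven by Pax8 target thyroperoxidase promoter measured by SteadyGlo luminescence.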 It is filed as functional, cell-based.
Test [13] has as its target T2, Microphthalmia-associated transcription factor (Homo sapiens, UniProt O75030).
T2 sequence (O75030 whole entry): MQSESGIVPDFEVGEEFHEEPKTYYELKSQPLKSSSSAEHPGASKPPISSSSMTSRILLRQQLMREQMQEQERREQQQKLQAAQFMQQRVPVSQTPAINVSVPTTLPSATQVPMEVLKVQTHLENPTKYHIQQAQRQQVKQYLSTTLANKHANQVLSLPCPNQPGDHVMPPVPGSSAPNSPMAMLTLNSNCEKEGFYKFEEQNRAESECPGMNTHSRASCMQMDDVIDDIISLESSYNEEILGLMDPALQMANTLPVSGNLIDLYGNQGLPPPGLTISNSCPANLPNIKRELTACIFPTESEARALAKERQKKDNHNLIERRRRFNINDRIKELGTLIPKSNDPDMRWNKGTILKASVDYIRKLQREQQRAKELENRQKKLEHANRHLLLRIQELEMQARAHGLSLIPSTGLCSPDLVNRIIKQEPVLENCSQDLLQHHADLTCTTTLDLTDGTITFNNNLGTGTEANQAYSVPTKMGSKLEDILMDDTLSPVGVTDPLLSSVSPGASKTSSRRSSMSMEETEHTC
In words: reducers of TRPM1 reporter luminescence, concentration series – cell-based, SK-MEL-5, cherry-picked, set 3, MITF inhibitor project, dose response (AID 493073).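 Further: SK-MEL-5 melanoma cells with luciferase driven by the MITF target TRPM1 promoter.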 It counts as functional.

Test [14] is described as follows: A549 cell cytotoxicity, dose response, cytotoxicity control, plate reader, cherry-pick, antagonist series (AID 743412). It counts as functional, cell-based.
The nature of test [15]: general cell-killing toxicity readout – plate reader, dry powder samples, cytotoxicity control for PAX8 inhibitor project, dose response (AID 743021). It counts as functional, cell-based.
The nature of test [16]: blockade of melanocortin 4 receptor signaling – cell-based, plate reader, cherry pick, counter-screen for LGR2 antagonist project, dose response (AID 743444).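 Further: transfected HEK 293 cells stimulated with alpha-MSH peptide; potency of inhibitors of the alpha-MSH evoked signal.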 It counts as functional.
The target in test [17] is Neurotensin receptor type 1 (Homo sapiens, UniProt P30989). It counts as functional.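 Further: Image-based confirmatory dose-response assay measuring agonist activity at NTR1; NTR1-expressing U2OS osteosarcoma cells imaged for beta-arrestin GFP spot formation; agonist potency where compounds increase beta-arrestin recruitment.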
Sequence of Neurotensin receptor type 1 (P30989 whole entry, the tested form may be a part): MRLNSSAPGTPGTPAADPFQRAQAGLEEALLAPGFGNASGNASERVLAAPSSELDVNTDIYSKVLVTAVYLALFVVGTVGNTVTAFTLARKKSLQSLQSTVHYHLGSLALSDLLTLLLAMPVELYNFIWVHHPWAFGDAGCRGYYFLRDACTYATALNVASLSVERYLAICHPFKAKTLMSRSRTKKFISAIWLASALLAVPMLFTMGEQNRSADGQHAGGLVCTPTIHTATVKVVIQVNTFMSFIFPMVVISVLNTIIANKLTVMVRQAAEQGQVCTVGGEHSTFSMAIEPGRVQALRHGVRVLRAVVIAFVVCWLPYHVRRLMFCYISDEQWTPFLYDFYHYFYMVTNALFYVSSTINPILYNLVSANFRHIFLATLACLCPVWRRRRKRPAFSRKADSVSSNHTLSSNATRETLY
The target in test [18] is Disintegrin and metalloproteinase domain-containing protein 17 (Homo sapiens, UniProt P78536). In words: inhibition of ADAM17 substrate cleavage – biochemical, quenched FRET substrate, counter-screen for ADAM10 exosite inhibitor project, dose response (AID 743253).
Sequence of Disintegrin and metalloproteinase domain-containing protein 17 (P78536 whole entry, the tested form may be a part): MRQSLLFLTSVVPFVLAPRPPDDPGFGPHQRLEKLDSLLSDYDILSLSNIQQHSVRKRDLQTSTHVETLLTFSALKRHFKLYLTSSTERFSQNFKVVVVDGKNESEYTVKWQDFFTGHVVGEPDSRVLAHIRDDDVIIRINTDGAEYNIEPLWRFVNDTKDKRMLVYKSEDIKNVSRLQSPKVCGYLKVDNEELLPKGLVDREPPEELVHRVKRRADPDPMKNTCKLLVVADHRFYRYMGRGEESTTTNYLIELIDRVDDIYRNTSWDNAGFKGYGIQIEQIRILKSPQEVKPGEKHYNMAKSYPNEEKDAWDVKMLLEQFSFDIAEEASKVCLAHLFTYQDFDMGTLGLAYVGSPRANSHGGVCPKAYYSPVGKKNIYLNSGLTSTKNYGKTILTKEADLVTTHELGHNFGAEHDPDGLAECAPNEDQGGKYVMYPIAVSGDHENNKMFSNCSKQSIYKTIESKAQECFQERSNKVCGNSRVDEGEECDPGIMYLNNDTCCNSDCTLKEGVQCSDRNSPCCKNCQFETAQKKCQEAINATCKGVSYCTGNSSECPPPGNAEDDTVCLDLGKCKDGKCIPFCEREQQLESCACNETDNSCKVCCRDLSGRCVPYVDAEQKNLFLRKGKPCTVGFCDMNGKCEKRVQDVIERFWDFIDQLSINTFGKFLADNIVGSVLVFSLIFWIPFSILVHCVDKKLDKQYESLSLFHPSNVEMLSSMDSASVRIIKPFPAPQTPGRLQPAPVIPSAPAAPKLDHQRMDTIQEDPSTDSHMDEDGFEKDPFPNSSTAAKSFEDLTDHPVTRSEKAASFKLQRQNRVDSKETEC
Test [19] in a line: blockers of bursicon-stimulated LGR2 cAMP reporter – cell-based, HEK293, CRE-luciferase reporter, cherry pick, set 2, dose response (AID 743343).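 Further: transfected cells were stimulated with diluted bursicon conditioned medium after compound addition.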 It counts as functional.
The nature of test [20]: Luminescence Cell-Based Dose Retest to Confirm Inhibitors of Cancer Stem Cells. [Related pubchem assays (depositor defined):AID2717, AID2721]. It counts as functional. The note with it: Homo sapiens.
For test [21], the system named is A-375. Put plainly: proliferation inhibition in MITF-low A375 cells – cell-based, cherry-pick samples, set 2, counter-screen for MITF modulator project, dose response (AID 540335). The note with it: Homo sapiens. It is filed as functional.
Test [22] is described as follows: potency of ADAM10 substrate cleavage blockers – biochemical, QFRET, dose response (AID 743254).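 Further: ADAM10 enzyme with the DM2 quenched FRET peptide as substrate; EDANS fluorescence gain as the protease cuts the substrate; inhibitor potency against ADAM10 proteolytic activity.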
Test [23] in a line: cells. It is filed as functional.
The nature of test [24]: HepG2 cell cytotoxicity, dose response, cytotoxicity control for non-replicating M. tuberculosis project (AID 489018). It counts as functional. The note with it: Mycobacterium tuberculosis.
A short description of test [25]: microbe, parasite or virus in culture. It is filed as functional. The note with it: Mycobacterium tuberculosis.
The nature of test [26]: THP-1 cell cytotoxicity, dose response, cytotoxicity control for non-replicating M. tuberculosis project (AID 489025). It is filed as functional.
The nature of test [27]: toxicity toward HepG2 liver cells – cell-based, plate reader, cherry-pick, antagonist series, cytotoxicity control, dose response (AID 743416). It counts as functional.
In test [28] the target is T3, Calpain-2 catalytic subunit (Sus scrofa, UniProt P43367).
T3 sequence (P43367 whole entry): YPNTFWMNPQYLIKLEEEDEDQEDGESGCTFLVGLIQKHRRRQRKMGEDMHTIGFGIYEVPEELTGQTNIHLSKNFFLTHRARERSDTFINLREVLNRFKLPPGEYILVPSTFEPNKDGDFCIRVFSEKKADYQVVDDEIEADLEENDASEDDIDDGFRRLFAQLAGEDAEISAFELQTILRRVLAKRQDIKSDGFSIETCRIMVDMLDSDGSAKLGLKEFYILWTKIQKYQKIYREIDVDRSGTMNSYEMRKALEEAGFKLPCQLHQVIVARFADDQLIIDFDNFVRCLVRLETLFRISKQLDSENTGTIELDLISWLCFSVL
Put plainly: m-calpain protease blockers, concentration series – biochemical, fluorogenic peptide substrate, dose response (AID 1420). It counts as functional.

The nature of test [29]: Vero E6 cell cytotoxicity, dose response, cytotoxicity control for non-replicating M. tuberculosis project, secondary assay (AID 492998). It is filed as functional, VeroE6. Particulars: Vero C1008.
A short description of test [30]: viability loss in HEK293 cells – cell-based, plate reader, cherry-picked samples, cytotoxicity control, dose response (AID 743446). It is filed as functional.
The target of test [31] is T4, Aspartyl aminopeptidase (Plasmodium falciparum 3D7, UniProt Q8I2J3).
T4 sequence (Q8I2J3 whole entry): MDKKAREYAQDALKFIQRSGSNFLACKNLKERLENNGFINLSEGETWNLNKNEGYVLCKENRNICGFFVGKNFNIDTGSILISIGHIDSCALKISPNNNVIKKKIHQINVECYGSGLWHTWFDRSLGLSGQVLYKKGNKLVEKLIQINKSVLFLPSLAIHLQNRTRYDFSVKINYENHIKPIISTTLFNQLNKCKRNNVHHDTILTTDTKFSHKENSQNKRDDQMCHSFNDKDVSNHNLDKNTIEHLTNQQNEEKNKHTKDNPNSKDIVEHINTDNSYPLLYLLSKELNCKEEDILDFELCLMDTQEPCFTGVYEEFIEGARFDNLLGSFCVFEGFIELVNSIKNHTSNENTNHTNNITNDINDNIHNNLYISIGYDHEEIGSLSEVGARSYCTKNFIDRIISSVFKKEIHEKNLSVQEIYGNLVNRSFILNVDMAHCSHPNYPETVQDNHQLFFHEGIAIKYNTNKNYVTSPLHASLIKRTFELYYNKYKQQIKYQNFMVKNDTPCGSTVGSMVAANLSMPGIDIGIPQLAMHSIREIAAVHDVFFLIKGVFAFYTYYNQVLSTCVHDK

Test [32] addresses Procathepsin L (Homo sapiens, UniProt P07711).
Test [33] deals with T5, Neuropeptide Y receptor type 1 (Homo sapiens, UniProt P25929).
T5 sequence (P25929 whole entry): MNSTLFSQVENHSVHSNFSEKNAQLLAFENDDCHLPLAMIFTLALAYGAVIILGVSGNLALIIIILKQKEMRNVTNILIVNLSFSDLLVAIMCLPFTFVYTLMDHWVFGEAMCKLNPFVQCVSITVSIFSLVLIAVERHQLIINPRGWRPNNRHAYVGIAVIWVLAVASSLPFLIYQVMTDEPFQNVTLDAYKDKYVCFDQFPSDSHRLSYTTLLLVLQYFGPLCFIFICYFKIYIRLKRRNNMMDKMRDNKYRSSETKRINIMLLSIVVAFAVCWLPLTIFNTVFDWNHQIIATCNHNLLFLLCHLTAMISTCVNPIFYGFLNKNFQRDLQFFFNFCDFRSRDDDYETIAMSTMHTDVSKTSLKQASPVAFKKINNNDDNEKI
In words: Fluorescence-based counterscreen for agonists of NPY-Y2: cell-based high-throughput dose response assay for agonists of NPY-Y1. It counts as functional.

Test [34] addresses T6, Neuropeptide Y receptor type 2 (Homo sapiens, UniProt P49146).
T6 sequence (P49146 whole entry): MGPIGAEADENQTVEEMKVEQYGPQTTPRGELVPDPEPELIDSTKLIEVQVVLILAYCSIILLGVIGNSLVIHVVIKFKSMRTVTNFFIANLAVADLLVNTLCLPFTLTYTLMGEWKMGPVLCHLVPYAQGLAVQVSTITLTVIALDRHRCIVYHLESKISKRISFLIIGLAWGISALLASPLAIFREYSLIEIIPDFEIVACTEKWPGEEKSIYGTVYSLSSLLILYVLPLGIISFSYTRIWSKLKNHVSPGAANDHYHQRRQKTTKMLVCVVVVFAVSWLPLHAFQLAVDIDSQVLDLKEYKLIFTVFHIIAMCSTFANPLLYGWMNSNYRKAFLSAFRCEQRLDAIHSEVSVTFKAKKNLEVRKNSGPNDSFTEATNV
Put plainly: Fluorescence-based cell-based high-throughput dose response assay for agonists of NPY-Y2. [Related pubchem assays: 1703 (Screening assay (CNGC inhibitors).), 1359 (Screening assay (NPY-Y2 potentiators or agonists).), 1304 (Screening assay (NPY-Y1 potentiators or agonists).), 1710 (Screening assay (NPY-Y2 agonists).), 1791 (Summary AID.)]. It counts as functional.

Test [35] concerns HEK293. Put plainly: Fluorescence-based counterscreen for potentiators or agonists of NPY-Y2: cell-based high-throughput dose response assay to identify inhibitors of cyclic nucleotide gated ion channel (CNGC) activity. In this assay, the parental HEK293 cell line transfected with a cyclic-nucleotide gated ion channel (CNGC)-based cAMP sensor is used to measure inhibition of isoproterenol-induced CNGC activity by test compound. The note with it: Homo sapiens. It is filed as functional.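 Further: stimulus is 1 µM isoproterenol at EC100 plus PDE inhibitor Ro 20-1724 at 25 µM.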

T1 sequence (P08659 whole entry): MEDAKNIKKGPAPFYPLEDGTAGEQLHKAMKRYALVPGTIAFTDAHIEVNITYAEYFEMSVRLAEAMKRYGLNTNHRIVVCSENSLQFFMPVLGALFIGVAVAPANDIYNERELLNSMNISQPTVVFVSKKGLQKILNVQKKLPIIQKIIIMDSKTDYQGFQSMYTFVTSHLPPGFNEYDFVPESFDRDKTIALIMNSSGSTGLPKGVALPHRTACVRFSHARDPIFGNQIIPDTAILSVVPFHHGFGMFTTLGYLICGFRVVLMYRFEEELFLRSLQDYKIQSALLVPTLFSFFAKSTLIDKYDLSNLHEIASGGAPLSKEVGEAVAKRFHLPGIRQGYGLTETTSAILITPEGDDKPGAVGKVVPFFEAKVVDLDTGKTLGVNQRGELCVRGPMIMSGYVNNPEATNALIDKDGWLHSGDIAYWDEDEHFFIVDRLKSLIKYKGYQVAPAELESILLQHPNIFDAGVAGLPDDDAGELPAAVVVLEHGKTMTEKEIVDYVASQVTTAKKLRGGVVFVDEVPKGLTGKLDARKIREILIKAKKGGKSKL
Sequence of Paired box protein Pax-8 (Q06710 whole entry): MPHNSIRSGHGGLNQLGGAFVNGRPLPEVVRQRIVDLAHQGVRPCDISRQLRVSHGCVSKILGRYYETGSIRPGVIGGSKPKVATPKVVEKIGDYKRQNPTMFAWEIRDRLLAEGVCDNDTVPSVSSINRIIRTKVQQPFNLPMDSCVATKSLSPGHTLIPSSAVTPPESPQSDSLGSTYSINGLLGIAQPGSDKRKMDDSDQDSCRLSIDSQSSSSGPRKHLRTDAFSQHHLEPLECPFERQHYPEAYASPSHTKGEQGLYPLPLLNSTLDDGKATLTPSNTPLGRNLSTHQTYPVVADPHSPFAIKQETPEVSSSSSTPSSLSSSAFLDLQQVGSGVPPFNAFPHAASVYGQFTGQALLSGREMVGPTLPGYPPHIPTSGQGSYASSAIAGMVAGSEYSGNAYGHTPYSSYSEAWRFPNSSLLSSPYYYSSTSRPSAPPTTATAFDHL
Sequence of Procathepsin L (P07711 whole entry): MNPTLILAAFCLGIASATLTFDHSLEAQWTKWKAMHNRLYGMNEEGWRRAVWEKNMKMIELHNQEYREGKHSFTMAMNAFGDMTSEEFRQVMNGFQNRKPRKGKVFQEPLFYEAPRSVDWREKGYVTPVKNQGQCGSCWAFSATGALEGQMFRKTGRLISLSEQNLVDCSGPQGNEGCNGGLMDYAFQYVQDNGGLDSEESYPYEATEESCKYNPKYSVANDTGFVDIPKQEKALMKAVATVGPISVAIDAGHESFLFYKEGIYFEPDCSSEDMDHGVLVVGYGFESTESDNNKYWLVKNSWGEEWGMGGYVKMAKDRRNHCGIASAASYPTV
Sequence of Cyclin-dependent kinase 5/CDK5 activator 1 (Q00535 whole entry): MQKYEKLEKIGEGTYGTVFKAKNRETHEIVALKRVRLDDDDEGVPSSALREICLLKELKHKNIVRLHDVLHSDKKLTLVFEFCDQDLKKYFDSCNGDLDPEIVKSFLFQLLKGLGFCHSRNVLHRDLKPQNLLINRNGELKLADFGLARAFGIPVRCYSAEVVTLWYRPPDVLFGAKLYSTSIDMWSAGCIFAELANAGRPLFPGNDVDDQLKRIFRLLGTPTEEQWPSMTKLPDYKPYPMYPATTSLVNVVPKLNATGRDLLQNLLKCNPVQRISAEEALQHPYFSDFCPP
Sequence of Cyclin-dependent kinase 5/CDK5 activator 1 (Q15078 whole entry, further chain): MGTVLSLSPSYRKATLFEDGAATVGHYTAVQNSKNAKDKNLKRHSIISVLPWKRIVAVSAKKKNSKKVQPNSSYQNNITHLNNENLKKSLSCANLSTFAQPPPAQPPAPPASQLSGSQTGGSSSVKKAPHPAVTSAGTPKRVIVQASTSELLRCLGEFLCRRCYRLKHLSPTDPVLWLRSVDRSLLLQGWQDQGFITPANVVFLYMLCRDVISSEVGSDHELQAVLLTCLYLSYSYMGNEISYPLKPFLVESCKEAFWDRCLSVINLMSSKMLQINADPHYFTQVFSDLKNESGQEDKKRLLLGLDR

In the case of `COc1ccc(-c2cc3nc(C)cc(N)n3n2)cc1`, the EC50 was 6.14 µM (active) in test [1]; 0.621 µM (active) in [2]; 17.6 µM (active) in [3]; > 133 µM (inactive) in test [4]; 3.85 µM (inconclusive) in test [5]; 4.45 µM (active) in test [6]. Besides, the EC50 is > 50 µM (not active) in test [7], 2.85 µM (active) in [8] and 0.513 µM (active) in test [9]. Further, the AC50 in [10] is 17.5 µM (active).

As to `CCc1oc2ccccc2c1C(=O)c1ccc(O)cc1` [BENZARONE], in test [11], the half-maximal inhibitory concentration (IC50) is 1.29 µM (active).

On to `OC(CNCC(c1ccc(Cl)cc1Cl)c1c[nH]c2ccccc12)c1ccccc1` (stereo not given), for which the AC50 in test [12] was 11.2 µM (active); in [13], 14.7 µM (active); in test [14], 8.71 µM (active); in test [15], 38.2 µM (active); in [16], 21.1 µM (active); in test [19], 19.2 µM (active). Also, the AC50 was 2.12 µM (active) in [20], 14.8 µM (active) in test [21], 8.61 µM (active) in test [27] and 14.2 µM (active) in test [30]. Further, in [17], the EC50 was 15.2 µM (active). For the same compound, the IC50 was > 69.5 µM (inactive) in [18], 13.4 µM (inactive) in test [22], 12.3 µM (active) in test [23] and 11.4 µM (not active) in test [28]. For the same compound, the CC50 in test [24] is 7.75 µM (active); in test [25], 6.04 µM (active); in test [26], 6.38 µM (active); in test [29], 6.27 µM (active).

Consider `O=C(O)c1ccc(O)c(O)c1` [PROTOCATECHUIC ACID], for which the IC50 is 0.479 µM (active) in test [31] and > 59.6 µM (not active) in [32].

Consider `NC(=O)c1ccc2nc(NC(=O)c3ccc(N)cc3)sc2c1`, for which the EC50 in test [33], in test [34] and in [35] was > 35.4 µM (not active) throughout.

The EC50 is the concentration needed to bring the measured effect to its halfway point. One may read the AC50 as the concentration giving half of the maximal activity seen. The IC50 is the point on the concentration scale where inhibition reaches its midpoint.
